According to PMC4335062, “Data-Driven Prediction and Design of bZIP Coiled-Coil Interactions” (PLoS Computational Biology, 2015):
Where two headings read alike, the source gives them in different places. Where no end group is shown, it is not given here.

Legend:
Assay in all cases: Direct-binding FRET assay
[1] = molecular target: T1, FOSL1 (Homo sapiens, UniProt P15407); conditions: mean or single, read-out: Kd
T1 construct: made in house
T1 sequence (P15407 105-168 limits assumed): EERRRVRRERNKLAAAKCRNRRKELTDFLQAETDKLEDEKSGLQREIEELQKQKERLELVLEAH
Protocol: (§1) The direct binding assay was performed manually in 384-well plates and is similar to a previously described assay. Wells were filled with 20 μL of 1 mM TCEP-HCl. A 4 μM stock of acceptor protein was made fresh in 1 mM TCEP-HCl, and 20 μL was titrated in 2-fold dilutions over the wells. […] The direct-binding FRET data were fit as previously described. Briefly, the Kd of the designed peptide homodimer was experimentally determined and used with previously determined target homodimer Kd values to determine the heterodimer Kd. The homodimer Kd values used for the human bZIPs were from; experiments done by […] et al. used the same protein constructs for the human bZIP proteins, the same buffer conditions, and the same assay. The fitting used a system of ordinary differential equations to describe the concentrations of homo and heterodimers formed by the donor (D) and acceptor (A) as a function of the heterodimer Kd. MATLAB was used to simulate the binding experiment for different Kd values, and the value that gave the best agreement between simulation and experiment was assigned. A minimum 15% change in the donor fluorescence upon titrating the acceptor peptide from 0 to 1000 nM was required for a fit to be attempted. If this minimum was not met, the interaction was classified as “NS” for no signal change. […] These interactions were marked “AS” to indicate anomalous signal. We attributed this to interactions between the peptides, the dyes and the walls of the assay plates at low concentrations. These curves could not be fit, given their unusual shapes at low concentrations of acceptor. For such curves, we removed the first five points and re-fit the data. […] One example of this is increasing concentrations of acceptor causing an increase in donor fluorescence.

[2] = molecular target: T2, ATF5 (Homo sapiens, UniProt Q9Y2D1); conditions: mean or single, read-out: Kd
T2 construct: made in house
T2 sequence (Q9Y2D1 208-271 limits assumed): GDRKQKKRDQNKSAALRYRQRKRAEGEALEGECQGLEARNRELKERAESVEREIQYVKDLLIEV
Protocol: as §1

[3] = molecular target: T3, HLF (Homo sapiens, UniProt Q16534); conditions: read-out: Kd
T3 construct: made in house
T3 sequence (Q16534 225-288 limits assumed): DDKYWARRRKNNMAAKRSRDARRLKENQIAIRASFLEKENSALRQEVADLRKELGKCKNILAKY
Protocol: as §1

[4] = molecular target: T4, ATF2 (Homo sapiens, UniProt P15336); conditions: read-out: Kd
T4 construct: made in house
T4 sequence (P15336 352-415 limits assumed): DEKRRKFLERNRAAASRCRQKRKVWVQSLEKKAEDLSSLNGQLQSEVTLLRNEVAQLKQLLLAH
Protocol: as §1

[5] = molecular target: T5, JUNB (Homo sapiens, UniProt P17275); conditions: mean or single, read-out: Kd
T5 construct: made in house
T5 sequence (P17275 268-331 limits assumed): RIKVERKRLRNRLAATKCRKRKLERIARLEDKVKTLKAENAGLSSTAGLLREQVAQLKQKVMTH
Protocol: as §1

[6] = molecular target: T6, NFIL3 (Homo sapiens, UniProt Q16649); conditions: read-out: Kd
T6 construct: made in house
T6 sequence (Q16649 73-136 limits assumed): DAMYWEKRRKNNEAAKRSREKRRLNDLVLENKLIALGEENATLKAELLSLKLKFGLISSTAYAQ
Protocol: as §1

[7] = molecular target: T7, BATF (Homo sapiens, UniProt Q16520); conditions: read-out: Kd
T7 construct: made in house
T7 sequence (Q16520 26-89 limits assumed): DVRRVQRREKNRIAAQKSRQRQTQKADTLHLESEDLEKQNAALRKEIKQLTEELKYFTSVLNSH
Protocol: as §1

[8] = molecular target: T8, CREBZF (Homo sapiens, UniProt Q9NS37); conditions: read-out: Kd
T8 construct: made in house
T8 sequence (Q9NS37 204-267 limits assumed): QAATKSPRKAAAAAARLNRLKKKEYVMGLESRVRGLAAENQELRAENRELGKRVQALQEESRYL
Protocol: as §1

[9] = molecular target: T9, BATF3 (Homo sapiens, UniProt Q9NR55); conditions: mean or single, read-out: Kd
T9 construct: made in house
T9 sequence (Q9NR55 35-98 limits assumed): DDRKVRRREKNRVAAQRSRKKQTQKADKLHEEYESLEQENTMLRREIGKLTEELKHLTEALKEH
Protocol: as §1

[10] = molecular target: T10, DBP (Homo sapiens, UniProt Q10586); conditions: read-out: Kd
T10 construct: made in house
T10 sequence (Q10586 255-318 limits assumed): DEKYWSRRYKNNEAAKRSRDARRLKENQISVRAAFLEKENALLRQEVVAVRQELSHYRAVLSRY
Protocol: as §1

[11] = 4°C, C-terminal rhodamine design
[12] = 4°C, N-terminal rhodamine design
[13] = 23°C, C-terminal rhodamine design
[14] = 23°C, N-terminal rhodamine design
[15] = 37°C, C-terminal rhodamine design
[16] = 37°C, N-terminal rhodamine design
[17] = 4°C, C-terminal fluorescein design as donor, TAMRA target titrated
[18] = 4°C, C-terminal rhodamine design, mean or single
[19] = 4°C, N-terminal rhodamine design, mean or single
[20] = 23°C, C-terminal fluorescein design as donor, TAMRA target titrated
[21] = 23°C, C-terminal rhodamine design, mean or single
[22] = 23°C, N-terminal rhodamine design, mean or single
[23] = 37°C, C-terminal fluorescein design as donor, TAMRA target titrated
[24] = 37°C, C-terminal rhodamine design, mean or single
[25] = 37°C, N-terminal rhodamine design, mean or single

Kd [1, 11]: > 1000 nM
Kd [1, 12]: > 1000 nM
Kd [1, 13]: > 1000 nM
Kd [1, 14]: > 1000 nM
Kd [1, 15]: > 1000 nM
Kd [1, 16]: > 1000 nM
Kd [2, 11]: > 1000 nM
Kd [2, 12]: > 1000 nM
Kd [2, 13]: > 1000 nM
Kd [2, 14]: > 1000 nM
Kd [2, 15]: > 1000 nM
Kd [2, 16]: > 1000 nM
Kd [3, 17]: > 1000 nM
Kd [3, 18]: > 1000 nM
Kd [3, 19]: > 1000 nM
Kd [3, 20]: > 1000 nM
Kd [3, 21]: > 1000 nM
Kd [3, 22]: > 1000 nM
Kd [3, 23]: > 1000 nM
Kd [3, 24]: > 1000 nM
Kd [3, 25]: > 1000 nM
Kd [4, 17]: > 1000 nM
Kd [4, 18]: > 1000 nM
Kd [4, 19]: > 1000 nM
Kd [4, 20]: > 1000 nM
Kd [4, 21]: > 1000 nM
Kd [4, 22]: > 1000 nM
Kd [4, 23]: > 1000 nM
Kd [4, 24]: > 1000 nM
Kd [4, 25]: > 1000 nM
Kd [5, 11]: > 1000 nM
Kd [5, 12]: > 1000 nM
Kd [5, 13]: > 1000 nM
Kd [5, 14]: > 1000 nM
Kd [5, 15]: > 1000 nM
Kd [5, 16]: > 1000 nM
Kd [6, 17]: > 1000 nM
Kd [6, 18]: > 1000 nM
Kd [6, 19]: > 1000 nM
Kd [6, 20]: > 1000 nM
Kd [6, 21]: > 1000 nM
Kd [6, 22]: > 1000 nM
Kd [6, 23]: > 1000 nM
Kd [6, 24]: > 1000 nM
Kd [6, 25]: > 1000 nM
Kd [7, 17]: > 5000 nM
Kd [7, 18]: > 5000 nM
Kd [7, 19]: > 1000 nM
Kd [7, 20]: > 1000 nM
Kd [7, 21]: > 1000 nM
Kd [7, 22]: > 1000 nM
Kd [7, 23]: > 1000 nM
Kd [7, 24]: > 1000 nM
Kd [7, 25]: > 1000 nM
Kd [8, 17]: > 1000 nM
Kd [8, 19]: > 1000 nM
Kd [8, 20]: > 1000 nM
Kd [8, 22]: > 1000 nM
Kd [8, 23]: > 1000 nM
Kd [8, 24]: > 1000 nM
Kd ([8]; 37°C, C-terminal rhodamine design, repeat 1): > 1000 nM
Kd ([8]; 37°C, C-terminal rhodamine design, repeat 2): > 1000 nM
Kd ([8]; 37°C, C-terminal rhodamine design, repeat 3): > 1000 nM
Kd [8, 25]: > 1000 nM
Kd [9, 11]: > 5000 nM
Kd [9, 12]: > 1000 nM
Kd [9, 13]: > 1000 nM
Kd [9, 14]: > 1000 nM
Kd [9, 15]: > 1000 nM
Kd [9, 16]: > 1000 nM
Kd [10, 17]: > 1000 nM
Kd [10, 18]: > 1000 nM
Kd [10, 19]: > 1000 nM
Kd [10, 20]: > 1000 nM
Kd [10, 21]: > 1000 nM
Kd [10, 22]: > 1000 nM
Kd [10, 23]: > 1000 nM
Kd [10, 24]: > 1000 nM
Kd [10, 25]: > 1000 nM
Sequence: EREAQLENRVAHLKEKNQELKAQNLHLKEALSEAQNRNQELKNDA [XBP1-d1]
